{
  "source": "ChEMBL document CHEMBL1201862",
  "about": "“PubChem BioAssay data set” (2004)",
  "experiment_in_all_cases": "growth of human tumour cells (NCI), 48 h",
  "key": {"786-0": {"tested_on": "786-0"}, "A498": {"tested_on": "A498"}, "A549": {"tested_on": "A549"}, "ACHN": {"tested_on": "ACHN"}, "CAKI-1": {"tested_on": "CAKI-1"}, "CCRF-CEM": {"tested_on": "CCRF-CEM"}, "COLO 205": {"tested_on": "COLO 205"}, "DLD-1": {"tested_on": "DLD-1"}, "DMS-114": {"tested_on": "DMS-114"}, "DMS-273": {"tested_on": "DMS-273"}, "EKVX": {"tested_on": "EKVX"}, "HCC 2998": {"tested_on": "HCC 2998"}, "HCT-15": {"tested_on": "HCT-15"}, "HL-60": {"tested_on": "HL-60"}, "HOP-18": {"tested_on": "HOP-18"}, "HOP-62": {"tested_on": "HOP-62"}, "HT-29": {"tested_on": "HT-29"}, "IGROV-1": {"tested_on": "IGROV-1"}, "K562": {"tested_on": "K562"}, "KM12": {"tested_on": "KM12"}, "LOX IMVI": {"tested_on": "LOX IMVI"}, "LXFL 529": {"tested_on": "LXFL 529"}, "M14": {"tested_on": "M14"}, "MOLT-4": {"tested_on": "MOLT-4"}, "Malme-3M": {"tested_on": "Malme-3M"}, "NCI-H23": {"tested_on": "NCI-H23"}, "NCI-H460": {"tested_on": "NCI-H460"}, "OVCAR-3": {"tested_on": "OVCAR-3"}, "OVCAR-4": {"tested_on": "OVCAR-4"}, "OVCAR-5": {"tested_on": "OVCAR-5"}, "OVCAR-8": {"tested_on": "OVCAR-8"}, "RPMI-8226": {"tested_on": "RPMI-8226"}, "RXF 393": {"tested_on": "RXF 393"}, "RXF 631": {"tested_on": "RXF 631"}, "SF-268": {"tested_on": "SF-268"}, "SF-295": {"tested_on": "SF-295"}, "SF-539": {"tested_on": "SF-539"}, "SK-MEL-28": {"tested_on": "SK-MEL-28"}, "SK-MEL-2": {"tested_on": "SK-MEL-2"}, "SK-MEL-5": {"tested_on": "SK-MEL-5"}, "SK-OV-3": {"tested_on": "SK-OV-3"}, "SN12C": {"tested_on": "SN12C"}, "SNB-19": {"tested_on": "SNB-19"}, "SNB-75": {"tested_on": "SNB-75"}, "SW-620": {"tested_on": "SW-620"}, "TK-10": {"tested_on": "TK-10"}, "U-251": {"tested_on": "U-251"}, "UACC-257": {"tested_on": "UACC-257"}, "UACC-62": {"tested_on": "UACC-62"}, "UO-31": {"tested_on": "UO-31"}, "XF498": {"tested_on": "XF498"}},
  "note": "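Values below derive from 48-hour exposures of cells grown in 96-well plates, with endpoints linearly interpolated between the two concentrations bracketing the appropriate inhibition level. GI50 marks 50% less growth.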 Activity calls are given as the source filed them. Rule as the data show it: active = GI50 up to about 1.1 µM and inactive = higher.",
  "data": [
    {"smiles": "COc1ccc(C[P+]2(c3ccccc3)CCCCC2)cc1.O=[N+]([O-])c1ccc(C[P+]2(c3ccccc3)CCCCC2)cc1.[O-][Cl+3]([O-])([O-])[O-].[O-][Cl+3]([O-])([O-])[O-]", "values": [
      {"measurement": "GI50", "setting": "786-0", "value": "> 100 µM (inactive)"},
      {"measurement": "GI50", "setting": "A498", "value": "> 100 µM (inactive)"},
      {"measurement": "GI50", "setting": "A549", "value": "> 100 µM (inactive)"},
      {"measurement": "GI50", "setting": "ACHN", "value": "> 100 µM (inactive)"},
      {"measurement": "GI50", "setting": "CAKI-1", "value": "> 100 µM (inactive)"},
      {"measurement": "GI50", "setting": "CCRF-CEM", "value": "> 100 µM (inactive)"},
      {"measurement": "GI50", "setting": "COLO 205", "value": "52.5 µM (inactive)"},
      {"measurement": "GI50", "setting": "DLD-1", "value": "> 100 µM (inactive)"},
      {"measurement": "GI50", "setting": "DMS-114", "value": "36.1 µM (inactive)"},
      {"measurement": "GI50", "setting": "DMS-273", "value": "60 µM (inactive)"},
      {"measurement": "GI50", "setting": "EKVX", "value": "> 100 µM (inactive)"},
      {"measurement": "GI50", "setting": "HCC 2998", "value": "> 100 µM (inactive)"},
      {"measurement": "GI50", "setting": "HCT-15", "value": "> 100", "unit": "µM"},
      {"measurement": "GI50", "setting": "HL-60", "value": "20.6 µM (inactive)"},
      {"measurement": "GI50", "setting": "HOP-18", "value": "15.4 µM (inactive)"},
      {"measurement": "GI50", "setting": "HOP-62", "value": "77.1 µM (inactive)"},
      {"measurement": "GI50", "setting": "HT-29", "value": "10 µM (inactive)"},
      {"measurement": "GI50", "setting": "IGROV-1", "value": "47.6 µM (inactive)"},
      {"measurement": "GI50", "setting": "K562", "value": "56.1 µM (inactive)"},
      {"measurement": "GI50", "setting": "KM12", "value": "75.5 µM (inactive)"},
      {"measurement": "GI50", "setting": "LOX IMVI", "value": "67.5 µM (inactive)"},
      {"measurement": "GI50", "setting": "LXFL 529", "value": "16.4 µM (inactive)"},
      {"measurement": "GI50", "setting": "M14", "value": "66.2 µM (inactive)"},
      {"measurement": "GI50", "setting": "MOLT-4", "value": "63.8 µM (inactive)"},
      {"measurement": "GI50", "setting": "Malme-3M", "value": "19.3 µM (inactive)"},
      {"measurement": "GI50", "setting": "NCI-H23", "value": "66.8 µM (inactive)"},
      {"measurement": "GI50", "setting": "NCI-H460", "value": "71.6 µM (inactive)"},
      {"measurement": "GI50", "setting": "OVCAR-3", "value": "41 µM (inactive)"},
      {"measurement": "GI50", "setting": "OVCAR-4", "value": "> 100 µM (inactive)"},
      {"measurement": "GI50", "setting": "OVCAR-5", "value": "> 100 µM (inactive)"},
      {"measurement": "GI50", "setting": "OVCAR-8", "value": "> 100 µM (inactive)"},
      {"measurement": "GI50", "setting": "RPMI-8226", "value": "24.9 µM (inactive)"},
      {"measurement": "GI50", "setting": "RXF 393", "value": "95.9 µM (inactive)"},
      {"measurement": "GI50", "setting": "RXF 631", "value": "> 100 µM (inactive)"},
      {"measurement": "GI50", "setting": "SF-268", "value": "> 100 µM (inactive)"},
      {"measurement": "GI50", "setting": "SF-295", "value": "> 100 µM (inactive)"},
      {"measurement": "GI50", "setting": "SF-539", "value": "> 100 µM (inactive)"},
      {"measurement": "GI50", "setting": "SK-MEL-28", "value": "42.2 µM (inactive)"},
      {"measurement": "GI50", "setting": "SK-MEL-2", "value": "> 100 µM (inactive)"},
      {"measurement": "GI50", "setting": "SK-MEL-5", "value": "23.7 µM (inactive)"},
      {"measurement": "GI50", "setting": "SK-OV-3", "value": "> 100 µM (inactive)"},
      {"measurement": "GI50", "setting": "SN12C", "value": "70 µM (inactive)"},
      {"measurement": "GI50", "setting": "SNB-19", "value": "89.7 µM (inactive)"},
      {"measurement": "GI50", "setting": "SNB-75", "value": "> 100 µM (inactive)"},
      {"measurement": "GI50", "setting": "SW-620", "value": "94.6 µM (inactive)"},
      {"measurement": "GI50", "setting": "TK-10", "value": "> 100 µM (inactive)"},
      {"measurement": "GI50", "setting": "U-251", "value": "> 100 µM (inactive)"},
      {"measurement": "GI50", "setting": "UACC-257", "value": "29.6 µM (inactive)"},
      {"measurement": "GI50", "setting": "UACC-62", "value": "39.2 µM (inactive)"},
      {"measurement": "GI50", "setting": "UO-31", "value": "> 100 µM (inactive)"},
      {"measurement": "GI50", "setting": "XF498", "value": "> 100 µM (inactive)"}
    ]}
  ]
}
